Laboratory results taken from US20240376091A1, “THIADIAZOLEAMIDE DERIVATIVES AND THEIR APPLICATIONS” (ZHEJIANG UNIVERSITY, priority 2021, published 2024).

These compounds were tested against T1, AR (Homo sapiens, UniProt P10275, T878A) (assay: AR transcriptional activity, LNCaP-ARR2PB-eGFP reporter cells). Conditions: read-out: IC50 AR transcriptional activities.
T1 construct: into the androgen-dependent PCa cells (LNCaP); endogenous in cells; host or cells: LNCaP-ARR2PB-eGFP
T1 sequence (P10275 1-920 T878A): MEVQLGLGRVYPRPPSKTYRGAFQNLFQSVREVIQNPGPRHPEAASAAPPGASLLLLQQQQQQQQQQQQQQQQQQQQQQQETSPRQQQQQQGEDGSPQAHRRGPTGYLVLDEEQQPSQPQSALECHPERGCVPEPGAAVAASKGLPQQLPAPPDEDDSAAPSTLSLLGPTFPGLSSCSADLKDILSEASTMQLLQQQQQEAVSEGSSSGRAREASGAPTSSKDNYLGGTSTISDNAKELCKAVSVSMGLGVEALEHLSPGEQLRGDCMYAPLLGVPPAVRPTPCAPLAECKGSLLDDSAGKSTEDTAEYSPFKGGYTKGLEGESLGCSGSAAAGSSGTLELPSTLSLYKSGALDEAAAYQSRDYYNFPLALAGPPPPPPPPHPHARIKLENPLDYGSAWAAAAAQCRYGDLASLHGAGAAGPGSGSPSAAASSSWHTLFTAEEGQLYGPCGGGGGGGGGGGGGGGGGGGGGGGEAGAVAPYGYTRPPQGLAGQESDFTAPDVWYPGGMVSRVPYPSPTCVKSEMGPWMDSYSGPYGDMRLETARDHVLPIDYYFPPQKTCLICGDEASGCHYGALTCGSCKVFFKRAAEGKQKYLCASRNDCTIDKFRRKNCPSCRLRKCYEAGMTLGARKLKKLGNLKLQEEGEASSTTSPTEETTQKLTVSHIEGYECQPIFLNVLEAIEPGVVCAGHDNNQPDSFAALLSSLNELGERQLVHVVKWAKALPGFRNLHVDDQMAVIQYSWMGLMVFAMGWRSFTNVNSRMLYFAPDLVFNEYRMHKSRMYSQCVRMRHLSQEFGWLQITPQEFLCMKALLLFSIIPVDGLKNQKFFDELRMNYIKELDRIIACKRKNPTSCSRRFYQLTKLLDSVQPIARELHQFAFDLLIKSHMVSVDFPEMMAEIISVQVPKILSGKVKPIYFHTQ
Type: cell-based
Text: Detection principles: We conducted a stable transfection of promoter ARR2PB known for its strong AR responsiveness, into the androgen-dependent PCa cells (LNCaP). The expression of enhanced green fluorescent protein (eGFP) is depending on the degree of activation of AR. Therefore, LNCaP-ARR2PB-eGFP cell line could quantitatively determine the AR antagonistic activities of the compounds by evaluating the expression of eGFP.

Compound	IC50 [µM]
CC(Cc1nsc(NC(=O)c2csc(-c3cccc(C(F)(F)F)c3)c2)n1)=C(F)F [Compound D-30, N-(3-(3,3-difluoro-2-methylallyl)-1,2,4-thiadiazol-5-yl)-5-(3-(trifluoromethyl)phenyl)thiophene-3-carboxamide]	34.8
CC(F)(F)Cc1nsc(NC(=O)c2csc(-c3cccc(C(F)(F)F)c3)c2)n1 [Compound D-35, N-(3-(2,2-difluoropropyl)-1,2,4-thiadiazol-5-yl)-5-(3-(trifluoromethyl)phenyl)thiophene-3-carboxamide]	49.5
O=C(Nc1nc(CCl)ns1)c1csc(-c2cccc(C(F)(F)F)c2)c1 [Compound D-40, N-(3-(chloromethyl)-1,2,4-thiadiazol-5-yl)-5-(3-(trifluoromethyl)phenyl)thiophene-3-carboxamide]	21.5
CCN(CC)Cc1nsc(NC(=O)c2csc(-c3cccc(OC)c3)c2)n1 [Compound D-50, N-(3-((diethylamino)methyl)-1,2,4-thiadiazol-5-yl)-5-(3-methoxyphenyl)thiophene-3-carboxamide]	15
O=C(Nc1nc(CN2CCCC2)ns1)c1csc(-c2cccc(OC(F)(F)F)c2)c1 [Compound D-53, N-(3-(pyrrolidin-1-ylmethyl)-1,2,4-thiadiazol-5-yl)-5-(3-(trifluoromethoxy)phenyl)thiophene-3-carboxamide]	27.3
O=C(Nc1nc(CN2CCCCC2)ns1)c1csc(-c2cccc(OC(F)F)c2)c1 [Compound D-56, 5-(3-(Difluoromethoxy)phenyl)-N-(3-(piperidin-1-ylmethyl)-1,2,4-thiadiazol-5-yl)thiophene-3-carboxamide]	42.1
O=C(Nc1nc(CN2CCOCC2)ns1)c1csc(-c2cccc(OC(F)F)c2)c1 [Compound D-57, 5-(3-(Difluoromethoxy)phenyl)-N-(3-(morpholinomethyl)-1,2,4-thiadiazol-5-yl)thiophene-3-carboxamide]	15
CN1CCN(Cc2nsc(NC(=O)c3csc(-c4cccc(OC(F)F)c4)c3)n2)CC1 [Compound D-58, 5-(3-(Difluoromethoxy)phenyl)-N-(3-((4-methylpiperazin-1-yl)methyl)-1,2,4-thiadiazol-5-yl)thiophene-3-carboxamide]	23.7

The remaining lines, values ahead:

IC50 [µM]	Compound
25.3	CN(C)Cc1nsc(NC(=O)c2csc(-c3cccc(C#N)c3)c2)n1 [Compound D-47, 5-(3-Cyanophenyl)-N-(3-((dimethylamino)methyl)-1,2,4-thiadiazol-5-yl)thiophene-3-carboxamide]
1.06	CC(=O)Cc1nsc(NC(=O)c2cc(-c3cccc(C(F)(F)F)c3)oc2C(F)(F)F)n1 [Compound E-1, N-(3-(2-oxopropyl)-1,2,4-thiadiazol-5-yl)-2-(trifluoromethyl)-5-(3-(trifluoro-methyl)phenyl)furan-3-carboxamide]
2.23	CC(=O)Cc1nsc(NC(=O)c2cc(-c3cccc(C#N)c3)oc2C(F)(F)F)n1 [Compound E-2, 5-(3-Cyanophenyl)-N-(3-(2-oxopropyl)-1,2,4-thiadiazol-5-yl)-2-(trifluoromethyl)furan-3-carboxamide]
0.57	COc1cccc(-c2cc(C(=O)Nc3nc(CC(C)=O)ns3)c(C(F)(F)F)o2)c1 [Compound E-3, 5-(3-Methoxyphenyl)-N-(3-(2-oxopropyl)-1,2,4-thiadiazol-5-yl)-2-(trifluoromethyl)furan-3-carboxamide]
0.55	CC(=O)Cc1nsc(NC(=O)c2cc(-c3cccc(OC(F)(F)F)c3)oc2C(F)(F)F)n1 [Compound E-4, N-(3-(2-oxopropyl)-1,2,4-thiadiazol-5-yl)-5-(3-(trifluoromethoxy)phenyl)-2-(trifluoro-methyl)furan-3-carboxamide]
1.48	CC(=O)Cc1nsc(NC(=O)c2cc(-c3cccc(OC(F)F)c3)oc2C(F)(F)F)n1 [Compound E-5, 5-(3-(Difluoromethoxy)phenyl)-N-(3-(2-oxopropyl)-1,2,4-thiadiazol-5-yl)-2-(trifluoro-methyl)furan-3-carboxamide]
